Read-outs that look alike come from different tables or passages of the source. Marks after values point to notes of the source that are not given here. Ends that are not written are not given here.

Series [1] concerns Dipeptidyl Peptidase IV (DP IV, CD26). Briefly: Inhibition of DP IV (CD26) proteinase activity, Ki. It is filed as biochemical. As to conditions: soluble DP IV (CD26). From the text: Assays to measure CD26 (DP IV) activity will be performed on both the homobivalent compounds, e.g., Lys-boroPro coupled to another, and the heterobivalent compounds, e.g., Lys-boroPro coupled to a peptide specific for a T cell surface receptor, e.g., moth cytochrome C peptide. Methods for quantitatively measuring the interaction of small peptidomimetic inhibitors with CD26 or DP IV, as well as for the interaction of CD26 with larger ligands, e.g., the HIV Tat protein, have been developed (W. G. Gutheil and W. W. Bachovchin. Separation of L-Pro-DL-boroPro into Its Component Diastereomers and Kinetic analysis of Their Inhibition of Dipeptidyl Peptidase IV. A New Method for the Analysis of Slow, Tight-Binding Inhibition, Biochemistry 32, 8723-8731 (1993); Gutheil, W. G., and W., B. W. Kinlsq, A Matlab Program for Fitting Kinetics Data with Numerically Integrated Rate Equations and Its Application to the Analysis of Slow, Tight Binding Data, Analytical Biochemistry 223, 13-20 (1994); Gutheil, W. G., Subramanyam, M., Flentke, G. R., Sanford, D. G., Munoz, E., Huber, B. T., and Bachovchin, W. W. HIV-1 Tat Binds to DP IV (CD26): A possible Mechanism for Tat's Immunosuppressive Activity, Proc. Natl. Acad. Sci. U.S.A. 91, 6594-6598 (1994)). These methods use the chromatogenic substrate Ala-Pro-p-nitroanilide (APpNA) and fluorescent substrate Ala-Pro-7-amino-4-trifluoromethyl coumarin (AP-AFC). APpNA and AP-AFC are commercially available (e.g., Enzyme Systems Products, Dublin, Calif.).

For series [2] the following is noted: mice; cited from earlier work.
The subject of series [3] is T cell clone 2E5.G10.G5.E5. In words: T cell clone proliferation, thymidine uptake. The series is classed as cell-based. On the procedure:
(§1) The proliferative effect of PLP-S-KbP on several different T cell clones that recognize PLP 139-151 were tested. T cell clones that recognize an irrelevant epitope, were used as negating controls. The protocol used is described (Kuchroo, V. K., et al., B7-1 and B7-2 Costimulatory Molecules Activate Differentially the Th1/Th2 Developmental Pathways: Application to Autoimmune Disease Therapy, Cell 80, 707-718 (1995)) and is incorporated herein by reference. Proliferation was measured by thymidine uptake. Table 1 below compares the effect PLP-S-KbP, antigenic PLP 139-151 peptide and non-antigenic PLP 103-116 peptide has on proliferation in different five PLP 139-151 specific T cell clones.

Series [4] concerns T cell clone 7A5.F10.G11. In words: T cell clone proliferation, thymidine uptake. It is filed as cell-based. The procedure:
as §1

Series [5] has as its system T cell clone 4E3.B11.D9.H10.H6. In words: T cell clone proliferation, thymidine uptake. It is filed as cell-based. On the procedure: as §1
Series [6] concerns T cell clone 5B8.G8.E6.H12. Briefly: T cell clone proliferation, thymidine uptake. The series is classed as cell-based. The procedure: as §1
Series [7] relates to T cell clone SPL.C1.H2.F2. Briefly: T cell clone proliferation, thymidine uptake. The series is classed as cell-based. The procedure: as §1
For series [8], the system named is Dipeptidyl Peptidase IV (DP IV, CD26). The conditions noted are these: cited from earlier work.
The nature of series [9]: Conformational equilibrium of cyclic and open chain forms. The conditions noted are these: at equilibrium at pH 7.0. It is filed as physicochemical. From the text:
G. Gutheil and W. W. Bachovchin, separation of L-Pro-DL-boroPro into Its Component Diastereomers and Kinetic Analysis of Their Inhibition of Dipeptidyl Peptidase IV. A New Method for the Analysis of Slow, Tight-Binding Inhibition, Biochemistry 32, 8723-8731 (1993)).

Series [10] concerns H9 cells. Briefly: H9 cell viability, trypan blue hemocytometry counts and flow cytometry. It is filed as cell-based. The source says: Possible explanations for the observed inhibitory activity shown in FIG. 3 were eliminated with proper negative controls.
Series [11] has as its system H9 cells. Briefly: IL-2 production by H9 cells stimulated with anti-CD3 mAb OKT3 (HT2 bioassay). It is filed as cell-based. On the procedure: To determine the effect KbP2-Adipate had on anti-CD3 mAb stimulation of H9 cells, e.g., stimulation of suppressing IL-2 production, the following protocol was used.
In quadruplicate wells, H9 cells were preincubated with KbP2-Adipate for 0, 30, 60, or 150 min. After the preincubation, the cells were seeded into a 96 well flatbottom plate pre-coated with anti-CD3 monoclonal antibody OKT3 at 1,000, 5,000, 10,000, 20,000, 50,000, or 100,000 times dilution of stock. After 24 hr, the cells were lysed by freezing at […]. IL-2 concentration in the H9 cells lysates was bioassayed using the IL-2 dependent cell line HT2, Watson, J. D. “Continuous proliferation of murine antigen specific helper T lymphocytes in culture,” 1979, Journal of Experimental Medicine, 150:1510. HT2 proliferation was measured by counting 3H-thymidine incorporation.
Similar experiments were carried out with (KbP)2-EGS and the co-stimulatory antibody OKT3; the results of these experiments are shown in FIG. 12.

As for `NCCCC[C@H](N)C(=O)N1CCC[C@H]1B(O)O` (single isomer, unassigned) [L,D isomer, Lys-boroPro], the “DP IV inhibition” value in series [1] is given as “non inhibitory”.
Still for that read-out and setting: next, `O=C(C1CCCN1)N1CCCC1B(O)O` [L-Pro-D,L-boroPro]: “potent inhibitors”.
As to `C[C@H](N)C(=O)N1CCC[C@H]1B(O)O` [Ala-boroPro], in series [2], the “immune response in vivo (antibody production after antigen challenge)” value is recorded as “inhibited an immune response in vivo in mice”.
In the case of “PLP103-116: non-antigenic PLP 103-116 peptide (DYKTTICGKGLSAT)”, the “proliferation, thymidine uptake” value in [3] (dose 0.1 μM) is reported as 307 ^3H counts; in [3] (dose 1 μM), 434 ^3H counts; in series [3] (dose 10 μM), 60 ^3H counts; in series [3] (dose 100 μM), 107 ^3H counts; in series [4] (dose 0.1 μM), 556 ^3H counts; in series [4] (dose 1 μM), 314 ^3H counts. Besides, the “proliferation, thymidine uptake” value is 117 ^3H counts in [4] (dose 10 μM); 124 ^3H counts in series [4] (dose 100 μM); 178 ^3H counts in series [5] (dose 0.1 μM); 559 ^3H counts in [5] (dose 1 μM); 224 ^3H counts in series [5] (dose 10 μM); 274 ^3H counts in [5] (dose 100 μM). Further, the “proliferation, thymidine uptake” value is reported as 124 ^3H counts in [6] (dose 0.1 μM); 226 ^3H counts in series [6] (dose 1 μM); 74 ^3H counts in series [6] (dose 10 μM); 143 ^3H counts in [6] (dose 100 μM); 238 ^3H counts in series [7] (dose 0.1 μM); 123 ^3H counts in [7] (dose 1 μM). Also, the “proliferation, thymidine uptake” value is on record as 479 ^3H counts in series [7] (dose 10 μM) and 150 ^3H counts in series [7] (dose 100 μM).
As to `CC(N)C(=O)N1CCCC1B(O)O` [L-Ala-D,L-boroPro], the “DP IV inhibition” value in series [1] is “potent inhibitors”.
`OB(O)C1CCCN1` (stereo not shown) [boroPro]: the “DP IV inhibition” value in series [8] is on record as “not an effective inhibitor”.
In the case of `CC(C)C(N)C(=O)N1CCCC1B(O)O` (stereo not shown) [Val-boroPro], the “fraction existing as open chain, inhibitory species” value in series [9] is recorded as “less than 0.1%”.
Turning to “HSLGKWLGHPDKF [PLP 139-151, peptide corresponding to residues 139-151 of myelin proteolipid protein]”, the “proliferation, thymidine uptake” value is recorded as 101 ^3H counts in [3] (dose 0.1 μM); 288 ^3H counts in series [3] (dose 1 μM); 70 ^3H counts in series [3] (dose 10 μM); 1,506 ^3H counts in series [3] (dose 100 μM); 117 ^3H counts in [4] (dose 0.1 μM); 222 ^3H counts in series [4] (dose 1 μM). Besides, the “proliferation, thymidine uptake” value is 406 ^3H counts in series [4] (dose 10 μM); 2,324 ^3H counts in [4] (dose 100 μM); 318 ^3H counts in series [5] (dose 0.1 μM); 125 ^3H counts in series [5] (dose 1 μM); 534 ^3H counts in series [5] (dose 10 μM); 1,932 ^3H counts in series [5] (dose 100 μM). Also, the “proliferation, thymidine uptake” value in [6] (dose 0.1 μM) is given as 106 ^3H counts; in series [6] (dose 1 μM), 349 ^3H counts; in [6] (dose 10 μM), 9,176 ^3H counts; in series [6] (dose 100 μM), 41,073 ^3H counts; in [7] (dose 0.1 μM), 423 ^3H counts; in series [7] (dose 1 μM), 107 ^3H counts. Also, the “proliferation, thymidine uptake” value in series [7] (dose 10 μM) is 400 ^3H counts; in series [7] (dose 100 μM), 809 ^3H counts.
With `NCCCC[C@H](N)C(=O)N1CCC[C@H]1B(O)O` (single isomer, unassigned) [L,L isomer, Lys-boroPro], the “DP IV inhibition” value in series [1] was “inhibitory”.
In the case of `O=C(C1CCCN1)N1CCCC1B(O)O` (stereo not shown) [Pro-boroPro], in series [2], the “immune response in vivo (antibody production after antigen challenge)” value is given as “inhibited an immune response in vivo in mice”. Also, the “fraction existing as open chain, inhibitory species” value in [9] is reported as “less than 1%”.
Regarding “HSLGKWLGHPDKFAAAAAA-εKbP (not fully specified (C-terminus); printed as HSLGKWLGHPDKFAAAAAA-εKbP; also: C-terminus joined to epsilon-amino of Lys, which carries boroPro) [PLP-S-KbP, Lys-boroPro linked by its ε-amino group via six alanines to the C terminus of PLP 139-151]”, the “proliferation, thymidine uptake” value is reported as 175 ^3H counts in [3] (dose 0.1 μM); 7,738 ^3H counts in [3] (dose 1 μM); 26,410 ^3H counts in series [3] (dose 10 μM); 36,686 ^3H counts in series [3] (dose 100 μM); 187 ^3H counts in series [4] (dose 0.1 μM); 8,202 ^3H counts in series [4] (dose 1 μM). Moreover, the “proliferation, thymidine uptake” value in [4] (dose 10 μM) is reported as 35,521 ^3H counts; in series [4] (dose 100 μM), 43,999 ^3H counts; in [5] (dose 0.1 μM), 3,688 ^3H counts; in series [5] (dose 1 μM) it was 8,580 ^3H counts; in series [5] (dose 10 μM), 15,753 ^3H counts; in series [5] (dose 100 μM), 17,608 ^3H counts. The “proliferation, thymidine uptake” value in series [6] (dose 1 μM) is given as 22,022 ^3H counts; in series [6] (dose 10 μM), 53,628 ^3H counts; in [6] (dose 100 μM), 34,716* ^3H counts; in series [7] (dose 0.1 μM), 681 ^3H counts; in [7] (dose 1 μM) it was 2,527 ^3H counts; in series [7] (dose 10 μM) it was 17,516 ^3H counts. For the same compound, in [7] (dose 100 μM), the “proliferation, thymidine uptake” value is given as 31,635 ^3H counts.
Take `N[C@@H](CCCCNC(=O)CCCCC(=O)NCCCC[C@H](N)C(=O)N1CCC[C@H]1B(O)O)C(=O)N1CCC[C@H]1B(O)O` [KbP2-Adipate, di(L-Lysine-L-boroProline)adipate]: in series [10], the cell viability entry is given as “did not affect cell viability”. Moreover, the “shape of dose response on IL-2 production” value in series [11] is “decreases with increasing KbP2-Adipate concentrations”. Besides, in series [11] (4.0×10^−10 M, anti-CD3 mAb stimulation of H9 cells (FIG. 4)), the “suppression of IL-2 production” value is listed as 98%. In addition, the “concentration range where stimulatory effect begins” value in [11] (FIG. 5) is recorded as around 1 pM. Also, the “concentration range where stimulatory effect saturates” value in series [11] (FIG. 5) is recorded as around 10 mM. Also, the “augmentation of IL-2 production (co-stimulatory activity)” value in series [11] (higher concentrations (FIG. 5), depends on concentration and preincubation time) is listed as “up to 4 fold”. The “effect on IL-2 production” value is reported as “potent stimulator” in [11] (higher concentrations, e.g. 10^−6 M (FIG. 5)) and “potent inhibitor” in [11] (lower concentrations, e.g. 10^−10 M (FIG. 4)).

Values taken from patent US6875737B1, “Multivalent compounds for crosslinking receptors and uses thereof” (Trustees of Tufts College, priority 1996, dated 2005).
